One block for each compound: values may come before it.
Key:
A549 = experiment: Antiproliferative activity against human A549 cells assessed as cell growth inhibition; type: functional
SNB-75 = experiment: Antiproliferative activity against human SNB-75 cells assessed as cell growth inhibition; type: functional
NCI-H460 = experiment: Antiproliferative activity against human NCI-H460 cells assessed as cell growth inhibition; type: functional
CCRF-CEM = experiment: Antiproliferative activity against human CCRF-CEM cells assessed as cell growth inhibition; type: functional
OVCAR-3 = experiment: Antiproliferative activity against human OVCAR-3 cells assessed as cell growth inhibition; type: functional
MDA-MB-231 = experiment: Antiproliferative activity against human MDA-MB-231 cells assessed as cell growth inhibition; type: functional
PC-3 = experiment: Antiproliferative activity against human PC-3 cells assessed as cell growth inhibition; type: functional
[1] = Cytotoxicity against human HS27 cells assessed as reduction in cell growth measured after 48 hrs by MTT assay; type: toxicity, cell-based
SR = experiment: Antiproliferative activity against human SR cells assessed as cell growth inhibition; type: functional
MCF7 = experiment: Antiproliferative activity against human MCF7 cells assessed as cell growth inhibition; type: functional
MOLT-4 = experiment: Antiproliferative activity against human MOLT-4 cells assessed as cell growth inhibition; type: functional
M14 = experiment: Antiproliferative activity against human M14 cells assessed as cell growth inhibition; type: functional
K562 = experiment: Antiproliferative activity against human K562 cells assessed as cell growth inhibition; type: functional
OVCAR-4 = experiment: Antiproliferative activity against human OVCAR-4 cells assessed as cell growth inhibition; type: functional
CAKI-1 = experiment: Antiproliferative activity against human CAKI-1 cells assessed as cell growth inhibition; type: functional
Hep 3B2 [2] = experiment: Antiproliferative activity against human Hep3B cells assessed as cell growth inhibition at 10 uM measured after 48 hrs by MTT assay relative to control; type: functional; settings: read-out: GI
DU-145 = experiment: Antiproliferative activity against human DU-145 cells assessed as cell growth inhibition; type: functional
SK-MEL-28 = experiment: Antiproliferative activity against human SK-MEL-28 cells assessed as cell growth inhibition; type: functional
RXF 393 = experiment: Antiproliferative activity against human RXF 393 cells assessed as cell growth inhibition; type: functional
HT-29 = experiment: Antiproliferative activity against human HT-29 cells assessed as cell growth inhibition; type: functional
HCT-15 = experiment: Antiproliferative activity against human HCT-15 cells assessed as cell growth inhibition; type: functional
786-0 = experiment: Antiproliferative activity against human 786-0 cells assessed as cell growth inhibition; type: functional
SW-620 = experiment: Antiproliferative activity against human SW-620 cells assessed as cell growth inhibition; type: functional
Malme-3M = experiment: Antiproliferative activity against human Malme-3M cells assessed as cell growth inhibition; type: functional
SN12C = experiment: Antiproliferative activity against human SN12C cells assessed as cell growth inhibition; type: functional
COLO 205 = experiment: Antiproliferative activity against human COLO 205 cells assessed as cell growth inhibition; type: functional
[3] = Cytotoxicity against human WI-38 cells assessed as reduction in cell growth measured after 48 hrs by MTT assay; type: toxicity, cell-based
Hep 3B2 [4] = experiment: cells; settings: Homo sapiens, Hep3B, 48 h
HepG2 = experiment: cells; settings: Homo sapiens, HepG2, 48 h
Description: Antiproliferative activity against human HepG2 cells assessed as cell growth inhibition measured after 48 hrs by MTT assay

[5] = target: T1, Macrophage colony-stimulating factor 1 receptor (Homo sapiens, UniProt P07333); experiment: Inhibition of FMS (unknown origin) using myelin basic protein as substrate measured after 40 mins in presence of [gamma-33P]-ATP by scintillation counting method
T1 sequence (P07333 whole entry): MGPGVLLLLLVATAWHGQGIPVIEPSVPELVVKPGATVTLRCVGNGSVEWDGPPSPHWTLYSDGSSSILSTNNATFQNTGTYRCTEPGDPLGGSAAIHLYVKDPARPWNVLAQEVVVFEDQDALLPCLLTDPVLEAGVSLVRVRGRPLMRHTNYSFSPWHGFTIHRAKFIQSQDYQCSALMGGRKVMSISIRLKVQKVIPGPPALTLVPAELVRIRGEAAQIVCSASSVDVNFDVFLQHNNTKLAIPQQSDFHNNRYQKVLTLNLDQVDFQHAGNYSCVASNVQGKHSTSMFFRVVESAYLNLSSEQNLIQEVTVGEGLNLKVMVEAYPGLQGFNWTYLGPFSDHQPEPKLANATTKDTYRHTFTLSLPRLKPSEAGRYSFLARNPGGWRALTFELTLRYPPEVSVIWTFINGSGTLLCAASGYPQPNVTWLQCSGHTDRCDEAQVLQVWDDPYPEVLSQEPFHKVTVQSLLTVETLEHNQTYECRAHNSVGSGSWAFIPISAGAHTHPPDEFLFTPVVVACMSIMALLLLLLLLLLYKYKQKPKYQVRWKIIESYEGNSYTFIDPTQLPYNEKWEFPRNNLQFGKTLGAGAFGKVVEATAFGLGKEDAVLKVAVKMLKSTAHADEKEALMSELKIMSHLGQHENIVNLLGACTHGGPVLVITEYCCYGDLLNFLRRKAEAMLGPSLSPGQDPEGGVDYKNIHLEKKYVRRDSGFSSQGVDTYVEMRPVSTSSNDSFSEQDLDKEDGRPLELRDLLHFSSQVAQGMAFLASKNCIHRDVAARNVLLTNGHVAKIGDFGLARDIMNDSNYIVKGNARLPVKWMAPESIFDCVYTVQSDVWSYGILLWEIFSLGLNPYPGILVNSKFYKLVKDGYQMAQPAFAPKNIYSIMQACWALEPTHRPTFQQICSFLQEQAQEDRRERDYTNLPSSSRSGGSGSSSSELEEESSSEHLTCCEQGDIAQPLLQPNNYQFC

[6] = target: Voltage-gated inwardly rectifying potassium channel KCNH2 (Homo sapiens, UniProt Q12809); experiment: Inhibition of fluorescence tracer red binding to human ERG measured after 3 hrs by fluorescence polarization assay
Voltage-gated inwardly rectifying potassium channel KCNH2, sequence (Q12809 whole entry): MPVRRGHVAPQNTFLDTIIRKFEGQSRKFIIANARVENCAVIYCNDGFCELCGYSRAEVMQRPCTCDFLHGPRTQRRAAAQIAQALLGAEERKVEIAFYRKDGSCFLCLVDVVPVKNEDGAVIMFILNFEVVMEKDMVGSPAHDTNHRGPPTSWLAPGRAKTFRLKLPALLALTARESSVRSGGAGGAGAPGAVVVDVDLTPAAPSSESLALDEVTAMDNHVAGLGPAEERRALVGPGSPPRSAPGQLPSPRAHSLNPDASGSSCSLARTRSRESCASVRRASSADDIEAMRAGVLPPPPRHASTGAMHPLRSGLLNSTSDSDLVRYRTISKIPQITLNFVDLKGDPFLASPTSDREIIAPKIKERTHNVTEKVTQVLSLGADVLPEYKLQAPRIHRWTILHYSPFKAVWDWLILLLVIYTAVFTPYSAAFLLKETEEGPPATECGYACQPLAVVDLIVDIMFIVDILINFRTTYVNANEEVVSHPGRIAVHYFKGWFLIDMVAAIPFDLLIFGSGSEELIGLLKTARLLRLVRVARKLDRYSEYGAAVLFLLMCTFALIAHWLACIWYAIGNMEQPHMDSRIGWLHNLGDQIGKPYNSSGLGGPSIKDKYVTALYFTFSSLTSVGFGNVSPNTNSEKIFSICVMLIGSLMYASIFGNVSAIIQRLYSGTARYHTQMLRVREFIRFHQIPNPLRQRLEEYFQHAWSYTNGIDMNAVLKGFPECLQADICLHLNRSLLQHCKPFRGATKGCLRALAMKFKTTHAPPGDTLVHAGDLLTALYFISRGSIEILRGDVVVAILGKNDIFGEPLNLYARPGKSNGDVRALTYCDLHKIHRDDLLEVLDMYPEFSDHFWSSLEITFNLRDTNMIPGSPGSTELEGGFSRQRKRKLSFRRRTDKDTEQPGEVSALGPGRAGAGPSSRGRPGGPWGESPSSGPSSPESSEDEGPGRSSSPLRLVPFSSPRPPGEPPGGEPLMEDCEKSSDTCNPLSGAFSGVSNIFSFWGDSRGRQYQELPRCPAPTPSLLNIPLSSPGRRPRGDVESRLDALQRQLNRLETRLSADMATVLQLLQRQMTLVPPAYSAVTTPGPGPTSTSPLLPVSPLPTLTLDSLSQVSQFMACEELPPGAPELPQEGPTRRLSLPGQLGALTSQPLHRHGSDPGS

Hs-578T = experiment: Antiproliferative activity against human Hs-578T cells assessed as cell growth inhibition; type: functional
LOX IMVI = experiment: Antiproliferative activity against human LOX IMVI cells assessed as cell growth inhibition; type: functional
SF-295 = experiment: Antiproliferative activity against human SF-295 cells assessed as cell growth inhibition; type: functional
SF-539 = experiment: Antiproliferative activity against human SF-539 cells assessed as cell growth inhibition; type: functional
[7] = target: T1, Macrophage colony-stimulating factor 1 receptor; experiment: Inhibition of NanoLuc-fused FMS (unknown origin) transfected in HEK293 cells by NanoBRET assay; type: cell-based
MDA-MB-468 = experiment: Antiproliferative activity against human MDA-MB-468 cells assessed as cell growth inhibition; type: functional
HCT-116 = experiment: Antiproliferative activity against human HCT-116 cells assessed as cell growth inhibition; type: functional
MDA-MB-435 = experiment: Antiproliferative activity against human MDA-MB-435 cells assessed as cell growth inhibition; type: functional
BMDM = experiment: Inhibition of CSF-1-induced C57BL6 mouse BMDM cell growth preincubated for 1 hr followed by CSF-1 addition and measured after 5 hrs by alamar blue assay

- GI50 (A549): 3160 nM
- GI50 (NCI-H460): 2510 nM
- GI50 (CCRF-CEM): 2000 nM
- GI50 (OVCAR-3): 3160 nM
- GI50 (MDA-MB-231): 1260 nM
- GI50 (PC-3): 2000 nM
- GI50 (MCF7): 2510 nM
- GI50 (MOLT-4): 3160 nM
- GI50 (K562): 3160 nM
- GI50 (OVCAR-4): 3160 nM
- GI50 (DU-145): 3160 nM
- GI50 (SK-MEL-28): 2510 nM
- GI50 (HT-29): 2000 nM
- GI50 (HCT-15): 2510 nM
- GI50 (786-0): 3160 nM
- GI50 (SW-620): 2510 nM
- GI50 (COLO 205): 2000 nM
Compound: CNC(=O)c1cc(Oc2ccc(NC(=O)Nc3ccc(Cl)c(C(F)(F)F)c3)cc2)ccn1 [SORAFENIB]
- GI50 (SNB-75): 3160 nM
- IC50 at 48 h [1]: 8300 nM
- GI50 (SR): 3160 nM
- TGI (MCF7): 7940 nM
- TGI (MOLT-4): 100000 nM
- GI50 (M14): 2000 nM
- GI50 (CAKI-1): 3160 nM
- inhibition of growth at 10 µM (Hep 3B2 [2]): 75%
- GI50 (RXF 393): 3160 nM
- GI50 (Malme-3M): 2000 nM
- GI50 (SN12C): 2510 nM

- IC50 (Hep 3B2 [4]): 810 nM
- IC50 (HepG2): 870 nM
- IC50 ([5]; read-out: IC50): 788 nM
Compound: C=CC(=O)N1CCN(c2ccc(NC(=O)Nc3ccc(-c4cc(C(=O)NC(C)C)c5ncccc5n4)cc3)cc2C(F)(F)F)CC1
- IC50 at 48 h [3]: 15800 nM
- IC50 at 48 h [1]: 8100 nM

- GI50 (A549): 470 nM
- GI50 (NCI-H460): 660 nM
- GI50 (CCRF-CEM): 460 nM
- GI50 (MCF7): 290 nM
- GI50 (MOLT-4): 690 nM
- IC50 [7]: 1350 nM
- GI50 (K562): 660 nM
- GI50 (SK-MEL-28): 320 nM
- GI50 (HT-29): 530 nM
- GI50 (HCT-15): 330 nM
- GI50 (786-0): 300 nM
- GI50 (MDA-MB-435): 270 nM
- GI50 (SW-620): 310 nM
Compound: CCN1CCN(c2ccc(NC(=O)Nc3ccc(-c4cc(C(=O)NC)c5ncccc5n4)cc3)cc2C(F)(F)F)CC1
- IC50 [6]: 83400 nM
- TGI (Hs-578T): 6880 nM
- TGI (A549): 13000 nM
- GI50 (SNB-75): 840 nM
- TGI (SNB-75): 3820 nM
- IC50 at 48 h [3]: 16700 nM
- GI50 (LOX IMVI): 670 nM
- TGI (LOX IMVI): 2660 nM
- TGI (NCI-H460): 2930 nM
- TGI (CCRF-CEM): 1270 nM
- TGI (OVCAR-3): 5060 nM
- TGI (MDA-MB-231): 5250 nM
- TGI (PC-3): 6030 nM
- IC50 at 48 h [1]: 8800 nM
- TGI (SF-295): 4470 nM
- GI50 (SR): 670 nM
- TGI (SR): 18000 nM
- TGI (MCF7): 610 nM
- TGI (MOLT-4): 18000 nM
- GI50 (M14): 400 nM
- TGI (M14): 1050 nM
- GI50 (SF-539): 2300 nM
- TGI (SF-539): 4570 nM
- TGI (K562): 18000 nM
- TGI (OVCAR-4): 5630 nM
- TGI (CAKI-1): 5600 nM
- TGI (DU-145): 4900 nM
- TGI (SK-MEL-28): 580 nM
- GI50 (RXF 393): 500 nM
- TGI (RXF 393): 1660 nM
- TGI (HT-29): 2110 nM
- TGI (MDA-MB-468): 5030 nM
- TGI (HCT-15): 700 nM
- TGI (HCT-116): 4830 nM
- TGI (786-0): 580 nM
- TGI (MDA-MB-435): 560 nM
- TGI (SW-620): 620 nM
- GI50 (Malme-3M): 290 nM
- TGI (Malme-3M): 530 nM
- TGI (SN12C): 5300 nM
- TGI (COLO 205): 14200 nM
- IC50 (BMDM): 167 nM

- IC50 (Hep 3B2 [4]): 850 nM
- IC50 (HepG2): 920 nM
- IC50 ([5]; read-out: IC50): 852 nM
Compound: CC(C)NC(=O)c1cc(-c2ccc(NC(=O)Nc3ccc(N4CCNCC4)c(C(F)(F)F)c3)cc2)nc2cccnc12
- IC50 at 48 h [3]: 18600 nM
- IC50 at 48 h [1]: 9100 nM

- IC50 (Hep 3B2 [4]): 1890 nM
- IC50 (HepG2): 1270 nM
- IC50 ([5]; read-out: IC50): 134 nM
Compound: CNC(=O)c1cc(-c2ccc(NC(=O)Nc3ccc(N4CCOCC4)c(C(F)(F)F)c3)cc2)nc2cccnc12
- IC50 at 48 h [3]: > 20000 nM
- IC50 at 48 h [1]: 11600 nM

- IC50 ([5]; read-out: IC50): 901 nM
Compound: CC(C)NC(=O)c1cc(-c2ccc(NC(=O)Nc3ccc(N4CCOCC4)c(C(F)(F)F)c3)cc2)nc2cccnc12

- IC50 (Hep 3B2 [4]): 1760 nM
- IC50 (HepG2): 800 nM
- IC50 ([5]; read-out: IC50): 797 nM
- IC50 ([5]; read-out: pIC50 (converted)): 813 nM
Compound: CC(C)NC(=O)c1cc(-c2ccc(NC(=O)Nc3ccc(N4CCN(C)CC4)c(C(F)(F)F)c3)cc2)nc2cccnc12
- IC50 at 48 h [3]: 18300 nM
- IC50 at 48 h [1]: 8000 nM

- IC50 [7]: 563 nM
Compound: CNC(=O)c1cc(-c2ccc(NC(=O)Nc3ccc(N4CCN(C)CC4)c(C(F)(F)F)c3)cc2)nc2cccnc12
- IC50 [6]: 95900 nM

- IC50 ([5]; read-out: IC50): 196 nM
Compound: C=CC(=O)N1CCN(c2ccc(NC(=O)Nc3ccc(-c4cc(C(=O)NC)c5ncccc5n4)cc3)cc2C(F)(F)F)CC1

Compound: CC(C)NC(=O)c1cc(-c2ccc(NC(=O)Nc3ccc(F)c(C(F)(F)F)c3)cc2)nc2cccnc12
- inhibition of growth at 10 µM (Hep 3B2 [2]): 84.8%

- IC50 ([5]; read-out: IC50): 743 nM
Compound: CNC(=O)c1cc(-c2ccc(NC(=O)Nc3ccc(N4CCNCC4)c(C(F)(F)F)c3)cc2)nc2cccnc12
